{"source": "patent US7449466B2", "about": "“Cyclic aminophenyl sulfamate derivative” (Aska Pharmaceutical Co., Ltd., priority 2003, dated 2008)", "key": {"MCF-7 cells": {"system": "MCF-7 cells", "assay": "MCF-7 cell proliferation measurement (MTT) for examining estrogenic activity", "type": "cell-based, human", "conditions": "4 days, 570 nm", "experimental": "(3) MCF-7 Cell Proliferation Measurement for Examining Estrogenic Activity:\nStimulation of MCF-7 cell proliferation induced by estrogenic activity of each test compound was measured.\nMCF-7 cells were cultured in 10% fetal bovine serum (FBS)-containing RPMI 1640 medium which was free from Phenol Red, using a 75 cm^2 culture flask. Then the medium was changed to RPMI 1640 medium containing 10% of FBS from which emdogenous steroid had been eliminated by charcoal treatment but containing no Phenol Red. Renewing the medium every two days, the culture was continued for 4 days. By this step estrogen was removed from the MCF-7 cells.\nThe MCF-7 cells were seeded on 96-well plates, 2,000 cells per well, and cultured for 24 hours to immobilize the cells on the plate. After the cell immobilization, the medium in each well was changed to RPMI 1640 medium containing 10^−6M test compound and 10% of charcoal-treated FBS but containing no Phenol Red, and the culture was continued for further 4 days, during which the medium was changed every day to one newly prepared before the use. Also control wells to which no test compound was added were provided.\nAfter the end of the culture, the cell proliferation was measured by MTT (3-(4,5-dimethylthiazol-2-yl)-2,5-diphenyl-2H-tetrazolium bromide; Sigma-Aldrich Japan Co.) method. That is, an MTT solution as dissolved in PBS at a concentration of 5 mg/mL was added to the 96-well plate accommodating the cells, at a rate of 10 μL/well, followed by 2 hours' incubation at 37° C. After the end of the incubation, the medium was removed and the formazan which was taken into the cells and changed was dissolved with 100 μL of dimethylsulfoxide. Absorbance of the formazan was measured at wavelength 570 nm, using a microplate reader, subtracting the 630 nm background.\nAs shown by the Table 3, absorbance values of the wells to which the test compounds were added were invariably less than 150% of the absorbance of the control well, and it was confirmed that the test compounds were free of estrogenic activity."}, "[1]": {"system": "Salmonella typhimurium TA 100, TA 1535, TA 98 and TA 1537 strains and Escherichia coli WP 2 uvrA strains", "assay": "Reverse mutation test using bacteria (Ames test), with and without metabolic activation", "type": "cell-based", "conditions": "10-5,000 μg/well; with and without Rat Liver S9mix", "experimental": "(6) Reverse Mutation Test Using Bacteria (Ames Test) for Examining Presence of Gentic Toxicity:\nReverse mutation-inducing activity on bacteria of the test compounds was examined by reverse mutation test using bacteria (Mutat. Res., 113, 173-215). The test was conducted by plate incorporation method using Salmonella typhimurium TA 100, TA 1535, TA 98 and TA 1537 strains and Escherichia coli WP 2 uvrA strains as to both cases of not conducting metabolic activation and conducting metabolic activation. The dosages were set at six levels as 10, 50, 100, 500, 1000 and 5,000 μg/well.\nInto a sterilized test tube, 0.1 mL of a test compound or a solvent, 0.5 mL of sodium-phosphate buffer (pH=7.4), 0.1 mL of a bacterial suspension and 2 mL of soft agar solution were added and mixed. Where metabolic activation was conducted, […] sodium-phosphate buffer (pH=7.4) was replaced with 0.5 mL of Rat Liver S9mix. The liquid mixture was superposed on the minimum glucose agar medium and after the superposed soft agar solution solidified, the system was cultured at 37° C. for 48 hours. At the end of the culture the number of colonies in which reverse mutation had been induced was visually counted with a colony counter. […]"}, "steroid sulfatase": {"target": "T1, steroid sulfatase (Homo sapiens, UniProt P08842)", "T1 sequence (P08842 22-583)": "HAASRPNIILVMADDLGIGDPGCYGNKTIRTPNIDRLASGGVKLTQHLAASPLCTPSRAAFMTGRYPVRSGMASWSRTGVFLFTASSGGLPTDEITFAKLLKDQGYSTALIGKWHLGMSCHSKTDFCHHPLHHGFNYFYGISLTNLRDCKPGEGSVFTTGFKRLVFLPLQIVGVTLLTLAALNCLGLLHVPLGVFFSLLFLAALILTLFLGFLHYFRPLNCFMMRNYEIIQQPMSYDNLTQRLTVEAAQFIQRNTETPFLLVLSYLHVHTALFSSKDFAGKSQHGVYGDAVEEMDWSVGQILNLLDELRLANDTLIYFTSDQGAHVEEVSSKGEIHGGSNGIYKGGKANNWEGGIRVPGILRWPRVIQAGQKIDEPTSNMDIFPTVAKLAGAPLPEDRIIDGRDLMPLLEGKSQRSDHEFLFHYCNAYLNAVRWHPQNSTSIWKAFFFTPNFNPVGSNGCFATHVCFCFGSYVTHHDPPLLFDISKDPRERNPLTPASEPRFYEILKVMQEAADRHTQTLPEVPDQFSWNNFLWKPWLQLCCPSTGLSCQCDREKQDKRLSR", "assay": "Steroid sulfatase inhibitory activity (in vitro), microsomal fraction of MCF-7 cells, [3H]estrone-3-sulfate hydrolysis", "type": "biochemical", "set-up": "microsomal fraction of MCF-7 human breast cancer cells was used; endogenous in cells; host or cells: MCF-7 human breast cancer cells (microsomal fraction)", "conditions": "MCF-7 microsomal fraction, 37° C., 30 minutes", "experimental": "(1) Measurement of Steroid Sulfatase Inhibitory Activity (in vitro):\nAs the source of steroid sulfatase enzyme, microsomal fraction of MCF-7 human breast cancer cells was used.\nTo phosphate buffered saline (PBS), one of the test compounds, the microsomal fraction and 50 μL of 60 μM estrone-3-sulfate containing about 100 nCi of [6,7-^3H]estrone-3-sulfate (purchased from Perkin Elmer Life Sciences, Boston, Mass., USA; specific activity, 40-60 Ci/mmol) were added to make the total amount of the reaction system 150 μL, which was incubated at 37° C. for 30 minutes. After the incubation, 50 μL of PBS containing about 2 nCi of [4-^14C] estrone (purchased from Perkin Elmer Life Sciences, Boston, Mass., USA; specific activity 45-60 mCi/mmol) was added and stirred. Further 800 μL of toluene was added, and the whole system was thoroughly shaken for 30 seconds, followed by centrifugation at 2,000×g for 10 minutes to separate the acqueous phase from the organic phase. A part (400 μL) of the organic phase was taken and measured of its ^3H and ^14C contents with scintillation spectrometer.\nThe mass of hydrolyzed [6,7-^3H]estrone-3-sulfate was calculated from the count number of the obtained ^3H (as corrected regarding the amount of the used organic phase and the recovered amount of [4-^14C]estrone) and the specific activity of the substrate ([6,7-^3H]estrone-3-sulfate) to determine the steroid sulfatase inhibitory rate of each test compound."}}}
{"smiles": "NS(=O)(=O)Oc1ccc(N2CCN(CCCC3CCCCC3)CC2)cc1F", "note": "[Example 24, 4-[4-(3-cyclohexylpropyl)piperazin-1-yl]-2-fluorophenyl-O-sulfamate]", "values": [{"measurement": "Absorbance relative to that of the control well (10^−6 M, %)", "setting": "MCF-7 cells", "value": 74.6, "unit": "%"}, {"measurement": "Ames test (reverse mutation inducing activity)", "setting": "[1]", "value": "negative"}, {"measurement": "Inhibitory rate (%) (10^−6 M)", "setting": "steroid sulfatase; 10^−6 M test compound", "value": 88.8, "unit": "%"}, {"measurement": "Inhibitory rate (%) (10^−7 M)", "setting": "steroid sulfatase; 10^−7 M test compound", "value": 31.1, "unit": "%"}]}
